Experimental data: patent US20120184545A1, “HEART-SLOWING DRUG CONTAINING SHORT-ACTING BETA-BLOCKER AS TEH ACTIVE INGREDIENT” (ONO PHARMACEUTICAL CO., LTD., priority 2003, published 2012)
Structures can show the parent of a compound that is named as a salt.

Tests used:
angina pectoris patients = test: efficacy and safety of landiolol hydrochloride in coronary angiography using MSCT; assay type: in vivo, human
Source text: Evaluation of efficacy and safety of landiolol hydrochloride to the coronary angiography ability using MSCT:
In the imaging of MSCT, LightSpeed Ultra 16 (16-slices MSCT, manufactured by GE medical systems) was used.
As a Workstation, Advantage Workstation AW 4.2 (manufactured by GE Medical Systems) was used.
As an imaging analysis soft, CardIQ Analysis II manufactured by GE Medical Systems was used.
As contrast media, iomeprol 350 mgI/ml (brand name: Iomeron 350, manufactured by Eisai Co., Ltd., was used.
To four angina pectoris patients, was intravenously administered landiolol hydrochloride swiftly over a period of 1 minute (0.063 mg/kg/minute), followed by a sustained intravenous administration over a period of 10 minutes (0.02 mg/kg/minute).
The contrast media were administered 10 minutes after confirming that the heart rate was slowed down. The imaging timing was determined by a test injection method using contrast media. As a result of swift administration of iomeprol (10 ml) and saline (20 ml) sequentially, it took approximately average of 16 seconds for iomeprol to reach heart. Afterwards, iomeprol (70 ml) and saline (20 ml) were swiftly administered sequentially and in time with the timing when iomeprol reached heart, MSCT imaging was started.
Three-dimensional overall figures of coronary artery were grasped with (A), and then followed by evaluation of the lesion site with (B) and (C), optionally followed by addition of an orthogonal cross-section imaging of a coronary artery for further confirmation.
To the above four angina pectosis patients, landiolol hydrochloride was administered. […] The inhibition rate (%) was calculated by {(post-value/(pre-value)×100−100}.

[1] = cited from earlier work

| SMILES | image quality of coronary angiography by MSCT (angina pectoris patients; after administration of landiolol hydrochloride, iomeprol contrast medium, 16-slices MSCT) | lowering of the blood pressure (safety) (angina pectoris patients; angina pectoris patients, after administration) | Heart rate after administration (angina pectoris patients; four angina pectoris patients (n = 4), i.v. 0.063 mg/kg/minute for 1 minute, then 0.02 mg/kg/minute for 10 minutes, before administration 61.0) [min⁻¹] | Systolic blood pressure after administration (angina pectoris patients; four angina pectoris patients (n = 4), i.v. 0.063 mg/kg/minute for 1 minute, then 0.02 mg/kg/minute for 10 minutes, before administration 173.3) [mmHg] | half life in blood [1] |
| --- | --- | --- | --- | --- | --- |
| CC1(C)OC[C@@H](COC(=O)CCc2ccc(OC[C@@H](O)CNCCNC(=O)N3CCOCC3)cc2)O1 [landiolol hydrochloride, (−)-[(S)-2,2-dimethyl-1,3-dioxolan-4-yl]methyl-3-[4-[(S)-2-hydroxy-3-(2-morpholinocarbonylamino)ethylamino]propoxy]phenylpropionic acid hydrochloride] | extremely sharp | no excessive lowering of the blood pressure was found | 54.8 | 161.8 | – |
| COC(=O)CCc1ccc(OCC(O)CNC(C)C)cc1 (centres unmarked) [esmolol hydrochloride, Methyl 3-[4-[2-hydroxy-3-(isopropylamino)propoxy]phenyl]propionic acid hydrochloride] | – | – | – | – | approximately 9 minutes |
